Where “and” joins values, the source holds several entries; their conditions need not be identical. Identical values can stand only once. Counter-ions that a name gives are not always drawn.

In this assay the test system is Lipopolysaccharide.
For `CCCCCCCCCC(=O)OC[C@H](COP(=O)([O-])OCC[N+](C)(C)C)OC(=O)CCCCCCCCC` [1,2-Didecanoyl PC], the inhibition – broadly, the change of the read-out against control, counted positive when it falls – was determined as 67.9%.

Take `CCCCCCCCCC(=O)OC[C@H](CO)OC(=O)CCCCCCCCC` [1,2-Didecanoyl-sn-glycerol]: the inhibition worked out at 47.4%.

`CCCCCCCC(=O)OC[C@H](CO)OC(=O)CCCCCCC` [1,2-Dioctanoyl-sn-glycerol] had an inhibition of 51.2%.

The compound `CCCCC/C=C\C/C=C\C/C=C\C/C=C\CCCC(=O)OCC(O)CO` (stereo not drawn) [1-Arachidonoyl Glycerol] had an inhibition of 41.8%.

In the case of `CCCCCCCC/C=C\CCCCCCCC(=O)OC[C@H](CO)OC(C)=O` [1-Oleoyl-2-acetyl-sn-glycerol], the inhibition stood at 36.2%.

Take `CCCCC/C=C\C/C=C\C/C=C\C/C=C\CCCC(=O)O[C@H](COC(=O)CCCCCCCCCCCCCCCCC)COP(=O)([O-])OCC[N+](C)(C)C` [1-Stearoyl-2-Arachidonoyl PC]: the inhibition is 55%.

`CCCCC/C=C\C/C=C\C/C=C\C/C=C\CCCCOC(CO)CO` [2-Arachidonyl Glycerol ether] showed an inhibition of 35%.

`CC(C)CCC[C@@H](C)[C@H]1CC[C@H]2[C@@H]3CC(=O)[C@@]4(O)C[C@@H](O)CC[C@]4(C)[C@H]3CC[C@]12C` [5α-hydroxy-6-keto Cholesterol] registered an inhibition of 81.7%.

`CCCCCCCC/C=C\CCCCCCCC(=O)OCCO` [9-octadecenoic acid (z)-,2-hydroxyethyl ester] came in with an inhibition of 46%.

In turn, `CCCCCCCCCCCC(=O)NCCCN(C)C` [(Laurylamidopropyl)dimethyl amine] displayed an inhibition of 99.1%.

`O=C1O/C(=C/Br)CC[C@@H]1c1cccc2ccccc12` [(R)-Bromoenol lactone] came in with an inhibition of 97.3%.

Compound `O=C1O/C(=C/Br)CC[C@H]1c1cccc2ccccc12` [(S)-Bromoenol lactone] gave an inhibition of 95.2%.

For the compound `CC/C=C\C/C=C\C/C=C\CCCCCCCC(=O)OCC` [(z,z,z)-9,12,15-octadecatrienoic acid ethyl ester], the inhibition worked out at 34.9%.

In turn, `CCCCC/C=C\C/C=C\C/C=C\C/C=C\CCCC(=O)Nc1ccc(O)cc1` [AM404] came in with an inhibition of 47.6%.

As for `O=S(=O)(O)c1ccc(O)cc1` [Aluminum phenol sulfonate], the inhibition amounted to 27.4%.

With `CCCCC/C=C\C/C=C\C/C=C\C/C=C\CCCC(=O)NCCO` [Anandamide (N-arachidonylethanol amide)], the inhibition was found to be 31.3%.

`O=C1O/C(=C/Br)CCC1c1cccc2ccccc12` (stereo not drawn) [Bromoenol lactone] returned an inhibition of 99.7%.

`CCCCCCCCCCCCC/C=C/[C@@H](O)[C@H](CO)NC(=O)CCCCC` [C-6 Ceramide] showed an inhibition of 48%.

Turning to `CCCCCCCCCCCCC/C=C/[C@@H](O)[C@H](COP(=O)(O)O)NC(=O)CCCCCCC` [C-8 Ceramide-1-phosphate], the inhibition was 42.7%.

In the case of `CCCCCCCCCCCCC/C=C/[C@@H](O)[C@H](CO)NC(=O)CCCCCCC` [C-8 Ceramide], the inhibition is 65.5%.

Compound `CCCCCCCCCCCCC/C=C/[C@@H](O)[C@H](CO)NCCCCCCCC` [C-8 Ceramine] came in with an inhibition of 96.7%.

With `CCCCCCCCCCCCCCCC[N+](C)(C)C` [Cetrimonium chloride], the inhibition turned out to be 99.5%.

The compound `CCCCCCCCCCCCCCCC[N+](C)(C)C` [Cetyltrimethylammonium bromide] had an inhibition of 99.5%.

With `COc1cc(/C=C/C(=O)CC(=O)/C=C/c2ccc(O)c(OC)c2)ccc1O` [Curcumin], the inhibition is 55.9%.

Consider `CCCCCCCCCCCCC/C=C/[C@@H](O)[C@@H](N)CO` [D-erythro-Sphingosine C-18], for which the inhibition is 63.8%.

`CCCCCCCCCCCC[P+](c1ccccc1)(c1ccccc1)c1ccccc1` [DODECYLTRIPHENYLP[…], 98%, DODECYLTRIPHENYLP[…]] yielded an inhibition of 91.1%.

`CCCCCCCCCC[N+](C)(C)CCCCCCCCCC` [Didecyldimethylammounium chloride] showed an inhibition of 97.5%.

As to `CCCCCCCCCCCC(=O)NCCCN(C)C` [Dimethylaminopropyllaurylamide], the inhibition came out at 99.4%.

The compound `CCCCCCCCCCCCCCCC[N+](C)(C)Cc1ccccc1` [Dimethylbenzylcetylammonium chloride] had an inhibition of 95.5%.

`CCCCCCCCCCCC[N+](C)(C)Cc1ccccc1` [Dimethyldodecylbenzylammonium bromide] gave an inhibition of 98.1%.

`CCCCCCCCCCCC[N+](C)(C)Cc1ccccc1` [Dimethyldodecylbenzylammonium chloride] registered an inhibition of 98.2%.

Consider `CCCCCCCC[N+](C)(C)CCCCCCCC` [Dioctyldimethylammonium chloride], for which the inhibition was found to be 93.3%.

In the case of `CCCCCCCCCCCC(=O)NCCO` [Dodecanamide MEA], the inhibition came to 44.3%.

Compound `CCCCCCCCCCCC[N+](C)(C)CCOc1ccccc1` [Domiphen bromide, reference compound] displayed an inhibition of 95.5%.

Regarding `CC/C=C\C/C=C\C/C=C\C/C=C\C/C=C\CCCC(=O)O[C@H](COCCCCCCCCCCCCCCCC)COP(=O)([O-])OCC[N+](C)(C)C` [Eicosapentaenoyl PAF C-16], the inhibition is 82.7%.

For the compound `CCCCCCCCc1ccc(CCC(N)(CO)CO)cc1` [FTY720, reference compound], the inhibition amounted to 79.1%.

In turn, `CCCCCCCCCCCCCCCC(=O)NCCO` [Hexadecanamide MEA] gave an inhibition of 32.5%.

Turning to `CCCCCCCCCCCCCCCCOC[C@H](CO)OC(C)=O` [Hexadecyl Acetyl Glycerol], the inhibition came to 42%.

On to `CCCCCCCCCCCCCCCCOCC(CO)OC` (stereo not drawn) [Hexadecyl Methyl Glycerol], for which the inhibition came to 40%.

The compound `CC(C)c1ccc2c(c1)c(SC(C)(C)C)c(CC(C)(C)C(=O)O)n2Cc1ccc(Cl)cc1` [MK 886 (sodium salt)] registered an inhibition of 47.2%.

In turn, `Cc1cc(C(C)(C)CC(C)(C)C)ccc1OCCOCC[N+](C)(C)Cc1ccccc1` [Methylbenzethonium chloride, reference compound] came in with an inhibition of 93%.

`CCCCCCCCCCCCCCCCOC[C@H](COP(=O)([O-])OCC[N+](C)(C)C)OC(=O)NC` [Methylcarbamyl PAF C-16] came in with an inhibition of 59.7%.

For the compound `CCCCC/C=C\C/C=C\C/C=C\C/C=C\CCCC(=O)NCCc1ccc(O)c(O)c1` [N-Arachidonoyl Dopamine], the inhibition was found to be 49.1%.

For `CCCCCCCCCCCCCCCCCCCCCC(=O)NCCS(=O)(=O)O` [N-Docosanoyl Taurine], the inhibition worked out at 85.2%.

With `CCCCCCCCCCCCN(CCO)CCO` [N-Lauryldiethanolamine], the inhibition is 99.6% and 100%.

For the compound `CCCCCCCC/C=C\CCCCCCCCCCCCCC(=O)NCCS(=O)(=O)O` [N-Nervonoyl Taurine], the inhibition came out at 79.8%.

In the case of `CCCCCCCCCCCCCCCC(=O)NCC(=O)O` [N-Palmitoyl Glycine], the inhibition worked out at 85.8%.

In turn, `CCCCCCCC/C=C\CCCCCCCC(=O)NCCO` [Oleoylethanolamide] had an inhibition of 34.1%.

On to `CCCCCCCC/C=C\CCCCCCCCN` [Oleyl amine], for which the inhibition was 99.6%.

`CCCCCCCCCCCCCCCC(=O)OC[C@H](COP(=O)([O-])OCC[N+](C)(C)C)OC(=O)CCCCCCCC(=O)O` [PAz-PC] came in with an inhibition of 72.8%.

`CCCCCCCCCCCCCCCC(=O)OC[C@H](COP(=O)([O-])OCC[N+](C)(C)C)OC(=O)CCCC=O` [POV-PC] showed an inhibition of 48.7%.

`CCCCCCCCCCCCCCCCCCN(CCO)CCO` [STEARYLDIETHANOLAMINE] yielded an inhibition of 88.1%.

As to `CCCCCCCCCCCCCCCCOS(=O)(=O)O` [Sodium hexadecyl sulfate], the inhibition turned out to be 89.4%.

`CCCCCCCCCCCCCCCOS(=O)(=O)O` [Sodium pentadecyl sulfate]: the inhibition was 86.6%.

Compound `CCCCCCCCCCCCCCCCCC[N+](C)(C)Cc1ccccc1` [Stearalkonium chloride] gave an inhibition of 96.5%.

Consider `CCCCCCCCCCCCCCCCCC[N+](C)(C)C` [Steartrimonium chloride], for which the inhibition came out at 71.3%.

`CCCCCCCCCCCCCS(=O)(=O)O` [TRIDECYL SULFONIC ACID SODIUM SALT]: the inhibition worked out at 95.6%.

On to `CCCCCCCCCCCCCC[N+](C)(C)Cc1ccccc1` [Tetradecylbenzyldimethylammonium chloride], for which the inhibition came to 93.8%.

On to `CC(C)=CCC/C(C)=C/CC/C(C)=C/CC[C@]1(C)CCc2c(C)c(O)c(C)c(C)c2O1` [alpha.-Tocotrienol], for which the inhibition was determined as 29.9%.

`CCCCCCCC/C=C\CCCCCCCC(=O)OCCOCCO` [diglycol monooleate] displayed an inhibition of 67%.

In the case of `CCCCC/C=C\C/C=C\C/C=C\C/C=C\CCCC(=O)OCC` [ethyl arachidonate], the inhibition was determined as 28.7%.

On to `CCCCCC/C=C\CCCCCCCC(=O)OCC` [ethyl cis-9-hexadecenoate], for which the inhibition was 31.8%.

Take `CCCCC/C=C\C/C=C\CCCCCCCC(N)=O` [linoleamide]: the inhibition came to 75.2%.

Turning to `CCCCCCCCCCCCCCCC(=O)NCCO` [palmitamide mea], the inhibition was 13.2%.

The compound `CCCCC/C=C\C/C=C\CCCCCCCC(=O)O` [potassium linoleate] yielded an inhibition of 98.9%.

`CCCCCCCC/C=C\CCCCCCCC(=O)OCC(O)CO` (stereo not drawn) [α-glyceryl monooloeate] yielded an inhibition of 49%.

The compound `CC/C=C\C/C=C\C/C=C\CCCCCCCC(=O)O` [α-linoleic acid] displayed an inhibition of 97.9%.

In the case of `CC/C=C\C/C=C\C/C=C\CCCCCCCC(=O)OC` [α-linolenic acid methyl ester], the inhibition came out at 24.9%.

On to `CC(C)=CCC/C(C)=C/CC/C(C)=C/CC[C@]1(C)CCc2cc(O)c(C)c(C)c2O1` [γ-Tocotrienol], for which the inhibition came to 38.5%.

Take `CC(C)=CCC/C(C)=C/CC/C(C)=C/CC[C@]1(C)CCc2cc(O)cc(C)c2O1` [δ-Tocotrienol]: the inhibition is 52.4%.

“Benzalkonium chloride [reference compound]” came in with an inhibition of 97.5%.

As for Laureth-6, the inhibition is 100%.

For Laureth-9, the inhibition worked out at 99.9%.

With Octoxynol-9, the inhibition amounted to 9.83%.

Quaternium-17 yielded an inhibition of 100%.

The values above are taken from patent US10156566B2, “Detoxification of microbial virulence factors in oral cavity” (priority 2015, dated 2018).
